Test system: MDA-MB-468 spheroids with HUVEC/MSC, viability
Experiment: Anticancer human tumor MDA-MB-468 cell line growth inhibition [PI3K];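 also: spheroids exposed to agents for seven days before readout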;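 as to viability, T/C: 100% = DMSO vehicle control viability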
Conditions: for IC50: curve of first compound; for viability, T/C: stronger effect = lower value
Excerpt: Combinatorial screen of targeted agents with the PI3K inhibitors inavolisib, alpelisib, duvelisib, and copanlisib in multi-cell type tumor spheroids
A high-throughput screen of multi-cell type tumor spheroids was designed to identify active combinations of targeted small molecules and PI3K pathway inhibitors. Complex spheroids include a stromal component modeled by human endothelial cells (HUVEC) and fibroblasts modeled by human mesenchymal stem cells (MSCs). The concentration ranges selected for each drug and investigational agent were based upon clinically achievable concentrations if the clinical Cmax of the agent was known.
Compounds. The drugs and investigational agents: inavolisib (NSC800729), alpelisib (NSC765974), duvelisib (NSC772469), copanlisib (NSC816437), ipatasertib (NSC767898), afuresertib (NSC778305), talazoparib (NSC767125), sapanisertib (NSC764658), selumetinib (NSC741078), tovorafenib (DAY101, NSC766906), vemurafenib (NSC761431), ravoxertinib (NSC781343), sotorasib (NSC818433), MRTX1133 (NSC 836407), abemaciclib (NSC 768073), palbociclib (NSC758247), venetoclax (NSC 766270), SY5609 (NSC837396), enzalutamide (NSC755605), and darolutamide (NSC825331), were obtained from the National Cancer Institute (NCI) Developmental Therapeutics Program Chemical Repository. The FDA-approved anticancer drug set is available from the NCI Developmental Therapeutics Program. […] The stock solutions were prepared in dimethyl sulfoxide (DMSO, Sigma-Aldrich, St. Louis, MO, cat. D2650) at 800-fold the tested concentration and stored at -70 degrees C prior to their use. All drugs and investigational agents were tested over a range starting from a high concentration at or near the clinical Cmax and decreasing in half-log increments. If the clinical Cmax for an agent had not been determined, the highest concentration tested was 10 microM.
Cell Culture. All cells were maintained in an incubator at 37 degrees C and 5% CO2 with 95% humidity. The PDC lines were cultured according to standard operating procedures established by the NCI PDMR (https://pdmr.cancer.gov/sops/default.htm). All PDCs were thawed and cultured in Matrigel-coated flasks prepared with a working solution of 1X Ham's F-12 nutrient mix, without supplementation (Invitrogen, Waltham, MA, cat. 11765054), 100 U/mL penicillin-streptomycin (Invitrogen, cat. 15140122), and 2.5% Matrigel (Corning Inc., Corning, NY, cat. 354248) for the first three passages. The 354836-022-R-J1-PDC, 475296-252-R-J1-PDC, and 997726-040-R-J2-PDC lines were cultured in 6A media, which includes advanced DMEM/F-12 (Thermo Fisher Scientific, cat. 12634028), 10 mM HEPES (Thermo Fisher Scientific, cat. 15630080), 1X GlutaMAX supplement (Thermo Fisher Scientific, cat. 35050061), 0.1 mg/mL primocin (InvivoGen, San Diego, CA, cat. ant-pm-2), 10% defined fetal bovine serum, heat inactivated (HyClone Laboratories Inc., Logan, UT, cat. SH30070.03HI), 50% L-WRN conditioned media (ATCC, cat. CRL-3276), 1.25 mM N-Acetyl-L-cysteine (Sigma-Aldrich, cat. A9165), 10 mM nicotinamide (Sigma-Aldrich, cat. N0636), 1X B-27 supplement (Thermo Fisher Scientific, cat. 17504044), 1X N-2 supplement (Thermo Fisher Scientific, cat. 17502048), and 10 microM Y-27632 dihydrochloride (Tocris Bioscience, Bristol, United Kingdom, cat. 1254). The 624824-186-R-J2-PDC line was cultured in 6C/Colon 1B media, which includes all 6A media components plus 50 ng/mL human EGF recombinant protein (Thermo Fisher Scientific, cat. PHG0311). […]

[1] = second compound 0.00316 µM, first compound 0.0316 µM
[2] = second compound 0.00316 µM, first compound 0.1 µM
[3] = second compound 0.00316 µM, first compound 0.316 µM
[4] = second compound 0.00316 µM, first compound 1 µM
[5] = second compound 0.00316 µM, first compound 3.16 µM
[6] = second compound 0.00316 µM, first compound 10 µM
[7] = second compound 0.01 µM, first compound 0.0316 µM
[8] = second compound 0.01 µM, first compound 0.1 µM
[9] = second compound 0.01 µM, first compound 0.316 µM
[10] = second compound 0.01 µM, first compound 1 µM
[11] = second compound 0.01 µM, first compound 3.16 µM
[12] = second compound 0.01 µM, first compound 10 µM
[13] = second compound 0.0316 µM, first compound 0.0316 µM
[14] = second compound 0.0316 µM, first compound 0.1 µM
[15] = second compound 0.0316 µM, first compound 0.316 µM
[16] = second compound 0.0316 µM, first compound 1 µM
[17] = second compound 0.0316 µM, first compound 3.16 µM
[18] = second compound 0.0316 µM, first compound 10 µM
[19] = second compound 0.1 µM, first compound 0.0316 µM
[20] = second compound 0.1 µM, first compound 0.1 µM
[21] = second compound 0.1 µM, first compound 0.316 µM
[22] = second compound 0.1 µM, first compound 1 µM
[23] = second compound 0.1 µM, first compound 3.16 µM
[24] = second compound 0.1 µM, first compound 10 µM
[25] = second compound 0.316 µM, first compound 0.0316 µM
[26] = second compound 0.316 µM, first compound 0.1 µM
[27] = second compound 0.316 µM, first compound 0.316 µM
[28] = second compound 0.316 µM, first compound 1 µM
[29] = second compound 0.316 µM, first compound 3.16 µM
[30] = second compound 0.316 µM, first compound 10 µM
[31] = second compound 1 µM, first compound 0.0316 µM
[32] = second compound 1 µM, first compound 0.1 µM
[33] = second compound 1 µM, first compound 0.316 µM
[34] = second compound 1 µM, first compound 1 µM
[35] = second compound 1 µM, first compound 3.16 µM
[36] = second compound 1 µM, first compound 10 µM

C#Cc1c(F)ccc2cc(O)cc(-c3ncc4c(N5CC6CCC(C5)N6)nc(OCC56CCCN5CC(F)C6)nc4c3F)c12 (stereo not drawn) + CC(Nc1ccc2c(c1)OCCn1cc(N3C(=O)OCC3C(F)F)nc1-2)C(N)=O
IC50 (second compound 0.00316 µM): > 10 µM | IC50 (second compound 0.01 µM): > 10 µM | IC50 (second compound 0.0316 µM): 8.92 µM | IC50 (second compound 0.1 µM): 8 µM | IC50 (second compound 0.316 µM): 5.19 µM | IC50 (second compound 1 µM): 4.48 µM | viability, T/C [1]: 94.9% | viability, T/C [2]: 91% | viability, T/C [3]: 86% | viability, T/C [4]: 91.5% | viability, T/C [5]: 88.2% | viability, T/C [6]: 53.4% | viability, T/C [7]: 95.7% | viability, T/C [8]: 103% | viability, T/C [9]: 83.3% | viability, T/C [10]: 82% | viability, T/C [11]: 89.2% | viability, T/C [12]: 55.1% | viability, T/C [13]: 91.4% | viability, T/C [14]: 84.9% | viability, T/C [15]: 88.3% | viability, T/C [16]: 81.2% | viability, T/C [17]: 81.9% | viability, T/C [18]: 46.5% | viability, T/C [19]: 84% | viability, T/C [20]: 76.7% | viability, T/C [21]: 72.1% | viability, T/C [22]: 75.5% | viability, T/C [23]: 73.9% | viability, T/C [24]: 44.4% | viability, T/C [25]: 93.1% | viability, T/C [26]: 72% | viability, T/C [27]: 81.1% | viability, T/C [28]: 64.5% | viability, T/C [29]: 65.7% | viability, T/C [30]: 36.4% | viability, T/C [31]: 89.1% | viability, T/C [32]: 75.4% | viability, T/C [33]: 82.1% | viability, T/C [34]: 70.3% | viability, T/C [35]: 59.2% | viability, T/C [36]: 31.3%

C=CC(=O)N1CCN(c2nc(=O)n(-c3c(C)ccnc3C(C)C)c3nc(-c4c(O)cccc4F)c(F)cc23)C(C)C1 (stereo not drawn) + CC(Nc1ccc2c(c1)OCCn1cc(N3C(=O)OCC3C(F)F)nc1-2)C(N)=O
IC50 (second compound 0.00316 µM): > 10 µM | IC50 (second compound 0.01 µM): > 10 µM | IC50 (second compound 0.0316 µM): > 10 µM | IC50 (second compound 0.1 µM): > 10 µM | IC50 (second compound 0.316 µM): > 10 µM | IC50 (second compound 1 µM): 7.86 µM | viability, T/C [1]: 85.4% | viability, T/C [2]: 92.4% | viability, T/C [3]: 98.7% | viability, T/C [4]: 107% | viability, T/C [5]: 98.3% | viability, T/C [6]: 82.5% | viability, T/C [7]: 91.3% | viability, T/C [8]: 101% | viability, T/C [9]: 82.3% | viability, T/C [10]: 101% | viability, T/C [11]: 97.3% | viability, T/C [12]: 73% | viability, T/C [13]: 92.5% | viability, T/C [14]: 95.3% | viability, T/C [15]: 87.1% | viability, T/C [16]: 86.8% | viability, T/C [17]: 96.4% | viability, T/C [18]: 66.1% | viability, T/C [19]: 104% | viability, T/C [20]: 82.5% | viability, T/C [21]: 87.4% | viability, T/C [22]: 102% | viability, T/C [23]: 86% | viability, T/C [24]: 59.6% | viability, T/C [25]: 84.5% | viability, T/C [26]: 66.2% | viability, T/C [27]: 76.4% | viability, T/C [28]: 91.4% | viability, T/C [29]: 93.6% | viability, T/C [30]: 55.9% | viability, T/C [31]: 82.6% | viability, T/C [32]: 93.9% | viability, T/C [33]: 77.8% | viability, T/C [34]: 84.7% | viability, T/C [35]: 64% | viability, T/C [36]: 46.3%

CC(Cn1ccc(-c2ccc(C#N)c(Cl)c2)n1)NC(=O)c1cc(C(C)O)[nH]n1 (stereo not drawn) + CC(Nc1ccc2c(c1)OCCn1cc(N3C(=O)OCC3C(F)F)nc1-2)C(N)=O
IC50 (second compound 0.00316 µM): > 10 µM | IC50 (second compound 0.01 µM): > 10 µM | IC50 (second compound 0.0316 µM): > 10 µM | IC50 (second compound 0.1 µM): > 10 µM | IC50 (second compound 0.316 µM): > 10 µM | IC50 (second compound 1 µM): > 10 µM | viability, T/C [1]: 104% | viability, T/C [2]: 84.3% | viability, T/C [3]: 107% | viability, T/C [4]: 99.4% | viability, T/C [5]: 101% | viability, T/C [6]: 88.6% | viability, T/C [7]: 102% | viability, T/C [8]: 93.8% | viability, T/C [9]: 79.3% | viability, T/C [10]: 90% | viability, T/C [11]: 94.6% | viability, T/C [12]: 77.8% | viability, T/C [13]: 101% | viability, T/C [14]: 79.7% | viability, T/C [15]: 92.5% | viability, T/C [16]: 90% | viability, T/C [17]: 88.4% | viability, T/C [18]: 72.1% | viability, T/C [19]: 114% | viability, T/C [20]: 82.2% | viability, T/C [21]: 80.4% | viability, T/C [22]: 102% | viability, T/C [23]: 94.8% | viability, T/C [24]: 65% | viability, T/C [25]: 88.5% | viability, T/C [26]: 77.7% | viability, T/C [27]: 96.1% | viability, T/C [28]: 85.1% | viability, T/C [29]: 69.9% | viability, T/C [30]: 64.5% | viability, T/C [31]: 93% | viability, T/C [32]: 72.7% | viability, T/C [33]: 89% | viability, T/C [34]: 78.8% | viability, T/C [35]: 66.5% | viability, T/C [36]: 68%

Cn1nccc1Nc1nccc(-c2ccn(C(CO)c3ccc(Cl)c(F)c3)c(=O)c2)n1 (stereo not drawn) + CC(Nc1ccc2c(c1)OCCn1cc(N3C(=O)OCC3C(F)F)nc1-2)C(N)=O
IC50 (second compound 0.00316 µM): > 10 µM | IC50 (second compound 0.01 µM): > 10 µM | IC50 (second compound 0.0316 µM): > 10 µM | IC50 (second compound 0.1 µM): > 10 µM | IC50 (second compound 0.316 µM): > 10 µM | IC50 (second compound 1 µM): > 10 µM | viability, T/C [1]: 85.3% | viability, T/C [2]: 96.8% | viability, T/C [3]: 87.2% | viability, T/C [4]: 90.4% | viability, T/C [5]: 96.1% | viability, T/C [6]: 87.9% | viability, T/C [7]: 97% | viability, T/C [8]: 89.1% | viability, T/C [9]: 87.8% | viability, T/C [10]: 94.9% | viability, T/C [11]: 101% | viability, T/C [12]: 82.6% | viability, T/C [13]: 95.3% | viability, T/C [14]: 86.6% | viability, T/C [15]: 88.6% | viability, T/C [16]: 80.1% | viability, T/C [17]: 108% | viability, T/C [18]: 77.8% | viability, T/C [19]: 88% | viability, T/C [20]: 89.2% | viability, T/C [21]: 77.7% | viability, T/C [22]: 81% | viability, T/C [23]: 87.5% | viability, T/C [24]: 73.1% | viability, T/C [25]: 90% | viability, T/C [26]: 82.5% | viability, T/C [27]: 89.6% | viability, T/C [28]: 87.6% | viability, T/C [29]: 82.7% | viability, T/C [30]: 60.7% | viability, T/C [31]: 85.5% | viability, T/C [32]: 74.3% | viability, T/C [33]: 74.7% | viability, T/C [34]: 74.8% | viability, T/C [35]: 81.2% | viability, T/C [36]: 55.2%
